From patent US20230391845A1, “GLP-1, GIP AND GLUCAGON RECEPTOR TRIPLE AGONISTS” (priority 2020, published 2023)
Entries after “also recorded” stand apart in the source; their conditions may differ. *1 amine or outer side, *2 acyl side, *3 side chain or, on linkers, in order; H or OH if unused. Where a SMILES comes first, the peptide text is derived from it. Side-chain parts run from the residue outwards. [ ]: non-standard residue; d: D form. The star is where a group is joined. C20 diacid = O=C(O)CCCCCCCCCCCCCCCCCCC(=O)*; γGlu = O=C(O)[C@H](CCC(=O)[*:2])N[*:1]; εLys = N[C@@H](CCCCN[*:1])C(=O)[*:2]; AEEA = NCCOCCOCC(=O)O; Aib = CC(C)(N)C(=O)O

Experiments:
human GLP-1 receptor = biological target: T1, human GLP-1 receptor (Homo sapiens, UniProt P43220); test: In vitro functional potency (CRE luciferase; whole cells), human GLP-1R; type: cell-based
T1 construct: expressed in transfected cells; host or cells: BHK cells (parent line BHKTS13) containing CRE luciferase

[1] = IPGTT (intraperitoneal glucose tolerance test) in DIO mice; type: in vivo, C57BL/6J male mice; conditions: for iAUC, IPGTT (min*mg/dL) Day 14: i.p. glucose 2 g/kg, baseline subtracted AUC
Procedure: (§1) The purpose of this example is to assess the in vivo effect of selected triple agonists on pharmacodynamic parameters in diet-induced obese (DIO) mice. The animals were treated once daily via subcutaneous injection with a liquid formulation of the triple agonist to be tested to assess effects on body weight, foot intake, and glucose tolerance.
(§2) C57BL/6J male mice were purchased from Jackson Laboratories at approximately 8 weeks of age. Mice were group housed and fed a high-fat, high-sugar diet from Research Diets (D12331). Mice were maintained on this diet for 12 weeks prior to initializing the pharmacology studies. Mice exceeding a measured body weight of 50 grams were considered diet-induced obese (DIO) and included in pharmacology studies. Mice were exposed to a controlled 12 h:12 h light:dark cycle at ambient room temperature (22° C.) with ab libitum access to food and water. Studies were approved by and performed according to the guidelines of the Institutional Animal Care and Use Committee of the University of Cincinnati.
(§3) All compounds in the study were formulated in the following buffer: 50 mM phosphate; 70 mM sodium chloride; 0.05% Tween-80, pH 7.4. Dosing solutions were formulated in glass vials and stored at 2-8° C. Dosing solutions were brought to room temperature before dosing and returned to 2-8° C. after dosing.
(§4) DIO mice were distributed into groups (n=8 per group) such that statistical variations in the mean and standard deviations of fat mass and body weight were minimized between groups. The animals were grouped to receive treatment as follows: Vehicle or GLP-1/GIP/Gcg receptor triple agonists as described herein, where vehicle is 50 mM phosphate, 70 mM sodium chloride; 0.05% (v/v) Tween-80, pH 7.4. The test compounds were dissolved in the vehicle, to stock concentrations of […], then diluted 50- to 200-fold in the vehicle to achieve the desired dosing solution concentrations. Animals were dosed subcutaneously once daily in the morning for each day of treatment with dosing solution at a volume of 2-5 μL per gram of body weight as necessary to achieve the desired dose (e.g. 0.3 nmol/kg, 1.0 nmol/kg, or 3.0 nmol/kg).
On the day of the glucose tolerance test, animals were fasted for 4 h. Food was removed and animals were transferred to fresh cages. Animals had access to water but not to food. Tail blood glucose levels were measured, and mice were injected (t=0) with an intraperitoneal (i.p.) glucose load of 2 g/kg (200 mg/ml glucose solution, dose volume 10 ml/kg). Tail blood glucose levels were measured at times 0, 15, 30, 60, 90, 120 minutes following the i.p. glucose load. Stratification of the animals during the IPGTT was such that for example two mice from group 1 are dosed followed by two mice from group 2, 3, 4, before the next two mice from group 1, 2, 3 etc. were handled. This was to allow for equal distribution of “time of day” throughout all groups.

[2] = Pharmacodynamic study in DIO mice, daily s.c. dosing over 13 days (body weight, food intake); type: in vivo, C57BL/6J male mice; conditions: for Absolute BW (grams) Day 0: Day 0 (baseline); for Cumulative food intake (grams) Day 13: mean ± SEM, n = 2; for reduction in body weight (in words) / reduction in food intake (in words): daily s.c. dosing over 13 days, compared to vehicle
Procedure: as §1, §2, §3
as §4, with “The” for “DIO mice were distributed into groups (n=8 per group) such that statistical variations in the mean and standard deviations of fat mass and body weight were minimized between groups. The”
Body weight (BW) and food intake were measured immediately prior to dosing each day. The percent change in body was calculated individually for each mouse based on initial body weight prior to the first injection.

[3] = Pharmacokinetic study in minipigs, i.v. administration; set-up: species or system Göttingen minipigs; conditions: female, Göttingen, minipig, in vivo, iv; minipigs, i.v. administration, harmonic mean; read-out: Terminal half-life t1/2 (converted)
Method in brief: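 Terminal half-life, reported as harmonic mean, came from non-compartmental fits of plasma levels measured by antibody assay or LCMS over up to 14 days. Dosing was i.v., typically 1.5-2 nmol/kg, through implanted caval catheters in fasted female Göttingen minipigs of 16-35 kg.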

T1 sequence (P43220 24-463): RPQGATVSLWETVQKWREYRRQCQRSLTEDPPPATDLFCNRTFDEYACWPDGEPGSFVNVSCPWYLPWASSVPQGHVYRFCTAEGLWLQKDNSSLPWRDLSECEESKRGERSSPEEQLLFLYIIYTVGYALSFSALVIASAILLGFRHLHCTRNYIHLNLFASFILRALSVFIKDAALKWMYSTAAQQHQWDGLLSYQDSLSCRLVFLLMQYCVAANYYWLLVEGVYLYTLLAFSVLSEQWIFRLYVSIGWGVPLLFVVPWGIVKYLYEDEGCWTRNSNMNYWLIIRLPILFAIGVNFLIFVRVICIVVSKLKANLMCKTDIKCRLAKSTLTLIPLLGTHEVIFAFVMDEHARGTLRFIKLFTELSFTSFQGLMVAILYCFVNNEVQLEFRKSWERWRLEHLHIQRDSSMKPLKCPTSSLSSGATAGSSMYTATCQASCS

| Compound | EC50 (human GLP-1 receptor) [pM] | iAUC, IPGTT (min*mg/dL) Day 14 ([1]; 0.3 nmol/kg s.c. once daily) [mg·min/dL] | glucose tolerance compared to vehicle (in words) ([1]; 1.0 nmol/kg and 3.0 nmol/kg doses) | iAUC, IPGTT (min*mg/dL) Day 14 ([1]; 1.0 nmol/kg s.c. once daily) [mg·min/dL] | iAUC, IPGTT (min*mg/dL) Day 14 ([1]; 3.0 nmol/kg s.c. once daily) [mg·min/dL] | Absolute BW (grams) Day 0 ([2]; 0.3 nmol/kg group) [grams] | Absolute BW (grams) Day 13 ([2]; 0.3 nmol/kg s.c. once daily) [grams] | Change in BW (%) Day 13 ([2]; 0.3 nmol/kg s.c. once daily) [%] | Cumulative food intake (grams) Day 13 ([2]; 0.3 nmol/kg s.c. once daily) [grams] | Absolute BW (grams) Day 0 ([2]; 1.0 nmol/kg group) [grams] | Absolute BW (grams) Day 13 ([2]; 1.0 nmol/kg s.c. once daily) [grams] | Change in BW (%) Day 13 ([2]; 1.0 nmol/kg s.c. once daily) [%] | Cumulative food intake (grams) Day 13 ([2]; 1.0 nmol/kg s.c. once daily) [grams] | Absolute BW (grams) Day 0 ([2]; 3.0 nmol/kg group) [grams] | Absolute BW (grams) Day 13 ([2]; 3.0 nmol/kg s.c. once daily) [grams] | Change in BW (%) Day 13 ([2]; 3.0 nmol/kg s.c. once daily) [%] | Cumulative food intake (grams) Day 13 ([2]; 3.0 nmol/kg s.c. once daily) [grams] | reduction in body weight (in words) [2] | reduction in food intake (in words) [2] | half-life [3] [h] |
| --- | --- | --- | --- | --- | --- | --- | --- | --- | --- | --- | --- | --- | --- | --- | --- | --- | --- | --- | --- | --- |
| CC[C@H](C)[C@H](NC(=O)[C@H](CO)NC(=O)[C@H](Cc1ccc(O)cc1)NC(=O)[C@H](CC(=O)O)NC(=O)[C@H](CO)NC(=O)[C@@H](NC(=O)[C@H](Cc1ccccc1)NC(=O)[C@@H](NC(=O)CNC(=O)[C@H](Cc1c[nH]cn1)NC(=O)C(C)(C)NC(=O)[C@@H](N)Cc1c[nH]cn1)[C@@H](C)O)[C@@H](C)O)C(=O)N[C@@H](Cc1ccc(O)cc1)C(=O)N[C@@H](CC(C)C)C(=O)N[C@@H](CCC(=O)O)C(=O)N[C@@H](CCCCNC(=O)COCCOCCNC(=O)COCCOCCNC(=O)CC[C@H](NC(=O)CCCCCCCCCCCCCCCCCCC(=O)O)C(=O)O)C(=O)N[C@@H](CCC(N)=O)C(=O)N[C@@H](C)C(=O)N[C@@H](C)C(=O)NC(C)(C)C(=O)N[C@@H](CCC(=O)O)C(=O)N[C@@H](Cc1ccccc1)C(=O)N[C@H](C(=O)N[C@@H](CCC(N)=O)C(=O)N[C@@H](Cc1c[nH]c2ccccc12)C(=O)N[C@@H](CC(C)C)C(=O)N[C@@H](CC(C)C)C(=O)N[C@@H](CCC(=O)O)C(=O)NCC(=O)NCC(=O)N1CCC[C@H]1C(=O)N[C@@H](CO)C(=O)N[C@@H](CO)C(=O)NCC(=O)N[C@@H](C)C(=O)N1CCC[C@H]1C(=O)N1CCC[C@H]1C(=O)N1CCC[C@H]1C(=O)N[C@@H](CO)C(N)=O)C(C)C [Compound No. 44] (H-H[Aib]HGTFTSDYSIYLEK([AEEA-AEEA-γGlu-C20 diacid])QAA[Aib]EFVQWLLEGGPSSGAPPPS-NH2; N-terminus assumed) | 1.8 | 25356 ± 4338 | improved glucose tolerance | 14606 ± 2410 | 15161 ± 2257 | 59.2 ± 1.2 | 56.9 ± 1.5 | −3.9 ± 1.1 | 28.0 ± 0.6 | 60.8 ± 1.1 | 52.7 ± 1.3 | −13.4 ± 0.9 | 24.8 ± 1.8 | 60.6 ± 1.1 | 43.1 ± 1.8 | −29.1 ± 2.3 | 12.4 ± 1.5 | superior reduction; also recorded: dose-dependent effect | superior reduction; also recorded: dose-dependent effect |  |
| CC(C)C[C@H](NC(=O)[C@H](CC(C)C)NC(=O)[C@H](Cc1c[nH]c2ccccc12)NC(=O)[C@H](CCC(N)=O)NC(=O)[C@@H](NC(=O)[C@H](Cc1ccccc1)NC(=O)[C@H](CCC(=O)O)NC(=O)C(C)(C)NC(=O)[C@H](C)NC(=O)[C@H](C)NC(=O)[C@H](CCC(N)=O)NC(=O)[C@H](CCCCNC(=O)[C@@H](N)CCCCNC(=O)[C@@H](N)CCCCNC(=O)CC[C@H](NC(=O)CCCCCCCCCCCCCCCCCCC(=O)O)C(=O)O)NC(=O)[C@H](CCC(=O)O)NC(=O)[C@H](CC(C)C)NC(=O)[C@H](Cc1ccc(O)cc1)NC(=O)[C@H](Cc1ccc(O)cc1)NC(=O)[C@H](CO)NC(=O)[C@H](Cc1ccc(O)cc1)NC(=O)[C@H](CC(=O)O)NC(=O)[C@H](CO)NC(=O)[C@@H](NC(=O)[C@H](Cc1ccccc1)NC(=O)[C@@H](NC(=O)CNC(=O)[C@H](Cc1c[nH]cn1)NC(=O)C(C)(C)NC(=O)[C@@H](N)Cc1c[nH]cn1)[C@@H](C)O)[C@@H](C)O)C(C)C)C(=O)N[C@@H](CCC(=O)O)C(=O)NCC(=O)NCC(=O)N1CCC[C@H]1C(=O)N[C@@H](CO)C(=O)N[C@@H](CO)C(=O)NCC(=O)N[C@@H](C)C(=O)N1CCC[C@H]1C(=O)N1CCC[C@H]1C(=O)N1CCC[C@H]1C(=O)N[C@@H](CO)C(N)=O [Compound No. 26] (H-H[Aib]HGTFTSDYSYYLEK([εLys-εLys-γGlu-C20 diacid])QAA[Aib]EFVQWLLEGGPSSGAPPPS-NH2; N-terminus assumed) | 3.1 |  |  | 8789 ± 1521 |  |  |  |  |  | 60.7 ± 1.9 | 51.6 ± 2.2 | −15.6 ± 0.9 | 20.1 ± 3.4 |  |  |  |  | superior reduction | superior reduction | 80 |
